18 compounds from PubChem BioAssay AID330 (DTP/NCI, 2004) can be followed below.

Several values for one entry are separate records, joined by “and”; a condition that tells them apart may be missing. Identical values can stand only once. Inconclusive results and toxic doses are left out.

The experiment has as its system P388 leukemia ip, CD2F1 mice, survival T/C. Description: NCI In Vivo Anticancer Drug Screen. Data for tumor model P388 Leukemia (intraperitoneal) in CD2F1 (CDF1) mice. As to conditions: endpoint: median survival time, higher = longer survival. In outline: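 Mice carrying the transplanted tumor received test compound or vehicle. Survival was recorded in each group, and the value is the treated-group measurement divided by that of the vehicle-treated control group.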

[1] abbreviates: dose: 50.0 mg/kg/injection, schedule: Q01DX005 (ip), vehicle: saline with Tween-80.
Where [2] appears, read: dose: 50.0 mg/kg/injection, schedule: Q01DX009 (ip), vehicle: saline with Tween-80.
Setting [3] is: dose: 100.0 mg/kg/injection, schedule: Q01DX009 (ip), vehicle: saline with Tween-80.
Where [4] appears, read: dose: 200.0 mg/kg/injection, schedule: Q01DX009 (ip), vehicle: saline with Tween-80.
[5] abbreviates: dose: 100.0 mg/kg/injection, schedule: Q01DX009 (ip), vehicle: Klucel (hydroxypropylcellulose) (HPC).
The mark [6] stands for this setting: dose: 200.0 mg/kg/injection, schedule: Q01DX009 (ip), vehicle: Klucel (hydroxypropylcellulose) (HPC).
Where [7] appears, read: dose: 100.0 mg/kg/injection, schedule: Q04DX002 (ip), vehicle: Klucel (hydroxypropylcellulose) (HPC).
[8] abbreviates: dose: 200.0 mg/kg/injection, schedule: Q04DX002 (ip), vehicle: Klucel (hydroxypropylcellulose) (HPC).

Consider `COc1ccc([I+]c2cccc(Cl)c2)cc1Cl`, for which the T/C is 106 % of control (dose: 0.09 mg/kg/injection, schedule: Q01DX009 (ip), vehicle: saline with Tween-80); 112 % of control (dose: 0.18 mg/kg/injection, schedule: Q01DX009 (ip), vehicle: saline with Tween-80); 102 % of control (dose: 0.37 mg/kg/injection, schedule: Q01DX009 (ip), vehicle: saline with Tween-80); 122 % of control (dose: 0.75 mg/kg/injection, schedule: Q01DX009 (ip), vehicle: saline with Tween-80); 150 % of control and 159 % of control (dose: 12.5 mg/kg/injection, schedule: Q01DX009 (ip), vehicle: saline with Tween-80); 106 % of control and 112 % of control (dose: 25.0 mg/kg/injection, schedule: Q01DX009 (ip), vehicle: saline with Tween-80).
On to `COc1cc(N(C)c2cc(=O)n(C)c(=O)[nH]2)ccc1C`, for which the T/C reads like this: (dose: 12.5 mg/kg/injection, schedule: Q01DX005 (ip), vehicle: saline with Tween-80) 101 % of control; (dose: 25.0 mg/kg/injection, schedule: Q01DX005 (ip), vehicle: saline with Tween-80) 101 % of control; under setting [1], 100 % of control and 94 % of control.
Take `CCCCC1CC=CC(NC#N)=N1` (stereo not drawn): the T/C is, setting by setting: under setting [2], 100 % of control; under setting [3], 104 % of control; under setting [4], 115 % of control.
Consider `CCN(CC)Cc1cc(N=Nc2cccc3ccccc23)c2ccccc2c1O`, for which the T/C was 102 % of control (dose: 50.0 mg/kg/injection, schedule: Q01DX009 (ip), vehicle: Klucel (hydroxypropylcellulose) (HPC)); 108 % of control under setting [5]; 100 % of control under setting [6].
Consider `CC(=N\O)/C(=N\O)C(=O)c1ccccc1`, for which the T/C is 95 % of control under setting [2], 90 % of control under setting [3] and 90 % of control under setting [4].
Consider `CN(C)c1ccc2c(=O)c(C(=O)O)c[nH]c2c1`, for which the T/C is, setting by setting: (dose: 6.25 mg/kg/injection, schedule: Q01DX005 (ip), vehicle: saline) 96 % of control; (dose: 12.5 mg/kg/injection, schedule: Q01DX005 (ip), vehicle: saline) 100 % of control; (dose: 25.0 mg/kg/injection, schedule: Q01DX005 (ip), vehicle: saline) 96 % of control; (dose: 25.0 mg/kg/injection, schedule: Q01DX009 (ip), vehicle: water) 99 % of control; (dose: 50.0 mg/kg/injection, schedule: Q01DX005 (ip), vehicle: saline) 95 % of control; (dose: 50.0 mg/kg/injection, schedule: Q01DX009 (ip), vehicle: water) 101 % of control. Besides, the T/C reads like this: (dose: 100.0 mg/kg/injection, schedule: Q01DX009 (ip), vehicle: water) 94 % of control; (dose: 200.0 mg/kg/injection, schedule: Q01DX009 (ip), vehicle: water) 89 % of control; (dose: 400.0 mg/kg/injection, schedule: Q01DX009 (ip), vehicle: water) 93 % of control.
As for `C[N+]1=Nc2cccc3cccc(c23)[N-]1`, the T/C is 111 % of control (dose: 50.0 mg/kg/injection, schedule: Q01DX001 (ip), vehicle: Klucel (hydroxypropylcellulose) (HPC)); 102 % of control (dose: 100.0 mg/kg/injection, schedule: Q01DX001 (ip), vehicle: Klucel (hydroxypropylcellulose) (HPC)); 100 % of control (dose: 200.0 mg/kg/injection, schedule: Q01DX001 (ip), vehicle: Klucel (hydroxypropylcellulose) (HPC)).
Turning to `Clc1c2ccccc2c(Cl)c2ccccc12`, the T/C is, setting by setting: (dose: 100.0 mg/kg/injection, schedule: Q04DX002 (ip), vehicle: saline with Tween-80) 97 % of control; (dose: 200.0 mg/kg/injection, schedule: Q04DX002 (ip), vehicle: saline with Tween-80) 103 % of control; (dose: 400.0 mg/kg/injection, schedule: Q04DX002 (ip), vehicle: saline with Tween-80) 96 % of control.
On to `CC(C)(C)c1cc(C(C)(C)O)c2c(c1)C(C)(C)OS2(=O)=O`, for which the T/C under setting [7] was 96 % of control; the T/C under setting [8] is 87 % of control; the T/C (dose: 400.0 mg/kg/injection, schedule: Q04DX002 (ip), vehicle: Klucel (hydroxypropylcellulose) (HPC)) is 97 % of control.
For the compound `COc1ccc(S(=O)(=O)N/N=C\c2cc([N+](=O)[O-])cc([N+](=O)[O-])c2O)c(OC)c1OC`, the T/C was 102 % of control under setting [1]; 107 % of control (dose: 100.0 mg/kg/injection, schedule: Q01DX005 (ip), vehicle: saline with Tween-80); 99 % of control (dose: 200.0 mg/kg/injection, schedule: Q01DX005 (ip), vehicle: saline with Tween-80).
Regarding `COc1cccc(/C=N/N(C)c2c([N+](=O)[O-])cc(C(F)(F)F)cc2[N+](=O)[O-])c1O`, the T/C was 93 % of control (dose: 60.0 mg/kg/injection, schedule: Q01DX005 (ip), vehicle: Klucel (hydroxypropylcellulose) (HPC)); 92 % of control (dose: 120.0 mg/kg/injection, schedule: Q01DX005 (ip), vehicle: Klucel (hydroxypropylcellulose) (HPC)); 87 % of control (dose: 240.0 mg/kg/injection, schedule: Q01DX005 (ip), vehicle: Klucel (hydroxypropylcellulose) (HPC)).
`FC(F)(F)c1nnc(-c2ccccc2)nn1`: the T/C is 100 % of control under setting [7] and 104 % of control under setting [8].
For the compound `O=c1c2nccnc2nc2n1CCCS2`, the T/C by setting is: under setting [5], 99 % of control; under setting [6], 100 % of control.
As to `C/C=C1\C[C@@H]2C(OC)Nc3cc(O)c(OC)cc3C(=O)N2C1` (stereo partly drawn), the T/C by setting is: (dose: 0.01 mg/kg/injection, schedule: Q04DX003 (ip), vehicle: other) 97 % of control; (dose: 0.03 mg/kg/injection, schedule: Q04DX003 (ip), vehicle: other) 114 % of control; (dose: 0.1 mg/kg/injection, schedule: Q04DX003 (ip), vehicle: other) 123 % of control; (dose: 0.13 mg/kg/injection, schedule: Q04DX003 (ip), vehicle: other) 160 % of control; (dose: 0.25 mg/kg/injection, schedule: Q04DX003 (ip), vehicle: other) 163 % of control; (dose: 0.3 mg/kg/injection, schedule: Q04DX003 (ip), vehicle: other) 161 % of control. Also, the T/C was 168 % of control (dose: 0.5 mg/kg/injection, schedule: Q04DX003 (ip), vehicle: other); 93 % of control (dose: 1.0 mg/kg/injection, schedule: Q04DX003 (ip), vehicle: other); 110 % of control (dose: 1.0 micrograms/kg/injection, schedule: Q01DX009 (ip), vehicle: other); 102 % of control (dose: 3.0 micrograms/kg/injection, schedule: Q01DX009 (ip), vehicle: other); 118 % of control (dose: 10.0 micrograms/kg/injection, schedule: Q01DX009 (ip), vehicle: other); 168 % of control (dose: 100.0 micrograms/kg/injection, schedule: Q01DX009 (ip), vehicle: other). Under “dose: 300.0 micrograms/kg/injection, schedule: Q01DX009 (ip), vehicle: other”, the T/C was 200 % of control.
As for `CC#CCOCC(O)CCl` (stereo not drawn), the T/C reads like this: (dose: 66.0 mg/kg/injection, schedule: Q04DX003 (ip), vehicle: saline) 110 % of control; (dose: 100.0 mg/kg/injection, schedule: Q04DX003 (ip), vehicle: saline) 100 % of control; (dose: 150.0 mg/kg/injection, schedule: Q04DX003 (ip), vehicle: saline) 120 % of control.
As for `CCC(=O)c1c(O)cc(O)cc1O`, the T/C (dose: 50.0 mg/kg/injection, schedule: Q04DX003 (ip), vehicle: saline with Tween-80) is 103 % of control; the T/C (dose: 100.0 mg/kg/injection, schedule: Q04DX003 (ip), vehicle: saline with Tween-80) was 103 % of control; the T/C (dose: 200.0 mg/kg/injection, schedule: Q04DX003 (ip), vehicle: saline with Tween-80) was 102 % of control; the T/C (dose: 400.0 mg/kg/injection, schedule: Q04DX003 (ip), vehicle: saline with Tween-80) is 103 % of control.
`N=c1c2ncn(C3OC(CO)C(O)C3O)c2ncn1N` (stereo not drawn): the T/C runs as follows: (dose: 25.0 mg/kg/injection, schedule: Q01DX005 (ip), vehicle: water) 110 % of control; (dose: 50.0 mg/kg/injection, schedule: Q01DX005 (ip), vehicle: water) 107 % of control; (dose: 100.0 mg/kg/injection, schedule: Q01DX005 (ip), vehicle: water) 105 % of control; (dose: 200.0 mg/kg/injection, schedule: Q01DX005 (ip), vehicle: water) 98 % of control; (dose: 400.0 mg/kg/injection, schedule: Q01DX005 (ip), vehicle: water) 108 % of control.
Consider `CC(C)CCN=C(N)N=C(N)N`, for which the T/C (dose: 60.0 mg/kg/injection, schedule: Q01DX005 (ip), vehicle: saline) is 100 % of control and the T/C (dose: 120.0 mg/kg/injection, schedule: Q01DX005 (ip), vehicle: saline) was 109 % of control.
